Measurements: US20260356803A1, “Nicotinamide derivatives” (Board of Regents, The University of Texas System, priority 2024, published 2026)
Like-named read-outs stand apart in the source and are kept apart here.

Columns and labels:
[1] = Mouse pharmacokinetics in plasma and brain; assay type: in vivo, CD1 mice; settings: for Kp / Cmax: mouse; for Kp: read-out: brain to blood exposure (AUCBrain/AUCplasma)
Experimental: GBM, which is reported to be a potential target for these compounds, is an intracranial tumor, and thus, effective drugs must cross the blood-brain barrier. Therefore, in addition to plasma, we analyzed compound and metabolite levels in mouse brain. Following the administration of a single 5 mg/kg intravenous (IV) injection of either 1 or 9, we quantified the levels of each compound in both plasma and brain. […] The brain to blood exposure, represented by the ratio of the area under the curve between brain and plasma (AUCBrain/AUCplasma), was 3.45 for 1 and 2.85 for 9.
Next, we analyzed the levels of metabolites that result from the metabolism of 1 and 9 through the NAD salvage pathway.
MS conditions were identical. The HPLC conditions were as follows: Solvent A: water including 0.1% formic acid (LC-MS) grade. Solvent B: Acetonitrile including %0.1 formic acid (LC-MS) grade. Gradient condition was 0-3 min: 3% B, 17 min: 60.5% B, 17.1 min Flow to 0.25 mL/min, 17 to 20 min hold 95% B: 20.5-25 min hold 3% B, 24.5 flow to 0.2 mL/min. Total run time: 25 mins.
Data analysis for TOF data was performed using SCIEX MultiQuant software version 3.0.3. For each of the compounds monitored, the theoretical exact m/z was calculated. A range of ±10 ppm was extracted around the theoretical mass and used to create an analytical method in MultiQuant. Extracted areas for parent compounds 1 and 9 in S462 cells and mice were normalized to the internal standard tolbutamide, while parent compounds 1 and 9 in cell-free reactions and all metabolite levels were presented as peak areas without normalization.
Six week old female CD1 mice (Charles River, Wilmington, MA) were dosed with 5 mg/kg 1 or 9 formulated as 5% DMSO/10% PEG400/85% D5W (5% dextrose in water, pH 7.4) in a volume of 0.2 ml/mouse. Animals were euthanized by inhalation overdose of CO2 at various points postdose. Blood was collected by cardiac puncture into K2EDTA tubes and kept on ice until they were spun at 9600×g for 10 min at 4 °C for plasma. Brains were harvested, rinsed briefly with PBS to remove surface adhering blood, weighed and then snap frozen in liquid nitrogen before storing along with plasma at −80 °C until processing. Brains were homogenized in a volume of PBS equal to 3× their weight in g. One hundred microliters of plasma or brain homogenate was mixed with […] of methanol containing 0.15% formic acid and 37.5 ng/ml tolbutamide internal standard. Samples were vortexed for 15 seconds, incubated at RT for 10 min and then spun at 16,100×g. The resulting supernatant was spun a second time and then filtered through 0.2 μm PVDF filters and analyzed by LC-MS. Samples were quantitated in comparison to a standard curve prepared by spiking 1 or 9 into blank plasma or brain homogenate. The limit of quantitation was set as the lowest point on the standard curve that upon back-calculation was within 20% of the nominal value and was at least three-fold above the average peak area observed for blank plasma or brain. The LOQ for 1 was 1 ng/ml in plasma and 5 ng/ml in brain. The LOQ for 9 was 5 ng/ml in plasma and 10 ng/ml for brain homogenate. Brain concentrations were adjusted to ng/g wet tissue weight and then an estimate was made of drug in brain vasculature using the measured plasma concentration and subtracted from the measured brain concentration.^30 Pharmacokinetic parameters were calculated using the noncompartmental analysis tool with sparse sampling in Phoenix WinNonlin (Certara Corp, Princeton, NJ).

[2] = system: NAMPT and NMNAT1; experiment: Cell-free metabolism by NAMPT and NMNAT1; assay type: biochemical; settings: role: substrate, 200 μM compound, NMNAT1, 0.4 mM PRPP, 2.5 mM ATP, 37 °C
Experimental: (§1) We reasoned that 1 and 9 would likely be metabolized to 1-mononucleotide (1-MN) and 9-mononucleotide (9-MN) by NAMPT and then to 1-adenine dinucleotide (1-AD) and 9-adenine dinucleotide (9-AD) by NMNAT1. Thus, we analyzed extracts from cell-free reactions that co-incubate each compound with NAMPT, NMNAT1, PRPP, and ATP by high-resolution mass spectrometry to identify these putative metabolites based on exact mass. […] To test whether these compound metabolites were also produced in cells, we analyzed metabolic extracts from cells treated with either 1 or 9.
A reaction mixture containing 50 mM Tris pH 8, 0.4 mM PRPP, 2.5 mM ATP, 12 mM MgCl2, 0.02% BSA, 1 μM NAMPT, 100 nM NMNAT1 and 200 μM compound 9 or 1 was incubated at 37 °C. Fifty microliter aliquots were quenched at the indicated time points by adding two volumes of acetonitrile with 0.1% formic acid and vortexing for 15 seconds. After incubation for ten minutes at room temperature, samples were centrifuged at 13,200 rpm for 5 minutes. The supernatants were filtered through 0.2 μm PVDF filters (Sigma #SLGV004SL) and analyzed by LC-MS/TOF. […]
(§2) Data analysis for TOF data was performed using SCIEX MultiQuant software version 3.0.3. For each of the compounds monitored, the theoretical exact m/z was calculated. […]

[3] = system: S462 cells; experiment: Metabolism in S462 cells; assay type: cell-based, human; settings: 500 nM compound
Experimental: as §1
Prior to the experiment, cells were cultured in low-Nam DMEM for at least 1 passage (3 days) to deplete intracellular Nam. 15,000 cells were plated in a 96-well plate with 100 μL low-Nam media. At appropriate time points, 500 nM 1 or 9, or equal volume of vehicle (DMSO) were added using TECAN. 200 μL of acetonitrile with 0.1% formic acid were added to the assayed wells. For the 0-hour time point, compound or vehicle was added after the addition of acetonitrile and formic acid. […] The supernatants were filtered through 0.2 μm PVDF filters and analyzed by LC-MS/TOF. […]
as §2

[4] = brain, 5 mg/kg IV single dose, read-out: brain Cmax
[5] = brain, 5 mg/kg IV, assuming brain density of 1 g/ml, read-out: brain Cmax
[6] = plasma, 5 mg/kg IV single dose, molar, read-out: plasma maximum concentration (Cmax)
[7] = plasma, 5 mg/kg IV single dose, read-out: plasma maximum concentration (Cmax)

For `O=C(Nc1cccnc1)c1cccs1` [Compound 1, N-(pyridin-3-yl)thiophene-2-carboxamide], the brain penetration ([1]; 5 mg/kg IV) was “brain-penetrant”, the “persistence in brain versus plasma” value ([1]; 5 mg/kg IV) was “persisted longer in the brain than in the plasma” and the Kp ([1]; brain, 5 mg/kg IV) was 3.45. The Cmax [1, 4] was 2220 ng/g, the Cmax [1, 5] was 10.8 µM and the Cmax [1, 6] was 5.65 µM. For the same compound, the Cmax [1, 7] was 1160 ng/mL, the “rapidly cleared from plasma by” value ([1]; plasma, 5 mg/kg IV) was ≤ 90 min and the “levels of parent compound over time” value [2] was “time-dependent decrease”. For the same compound, the “levels of parent compound over time in cells” value [3] was “time-dependent depletion”.

For `O=C(Nc1cccs1)c1cccnc1` [Compound 9, N-(Thiophen-2-yl)nicotinamide], the brain penetration ([1]; 5 mg/kg IV) was “brain-penetrant”, the “persistence in brain versus plasma” value ([1]; 5 mg/kg IV) was “persisted longer in the brain than in the plasma” and the Kp ([1]; brain, 5 mg/kg IV) was 2.85. The Cmax [1, 4] was 1600 ng/g, the Cmax [1, 5] was 7.8 µM and the Cmax [1, 6] was 23.7 µM. The Cmax [1, 7] was 4830 ng/mL, the “rapidly cleared from plasma by” value ([1]; plasma, 5 mg/kg IV) was ≤ 90 min and the “levels of parent compound over time” value [2] was “time-dependent decrease”. For the same compound, the “levels of parent compound over time in cells” value [3] was “time-dependent depletion”.
